Laboratory results: patent US20020106375A1, “Non-cytolytic soluble factor from activated-expanded CD4 cells” (priority 2000, published 2002)
Where a name gives a salt, the structure may show the parent alone. Read-outs that look alike come from different tables or passages of the source.

Tests used:
[1] = tested on: FasR (CD95) of LS513 cells; assay: FasR (CD95) expression by flow cytometry, LS513; assay type: cell-based, human
Procedure: (§1) Flow cytometry was used to assess FasR expression and cell cycle. Analysis of cell cycle was performed using propidium iodide on a Coulter EPICS Elite flow cytometer (Coulter Corporation) equipped with a 488 nm, 15 mW, air-cooled Argon laser. […] Optical laser alignment calibration of the flow cytometer was performed using Coulter's DNA-Check EPICS alignment fluorosphere beads with coefficient of variations routinely less than 2%. PI fluorescent light emission was collected through a 610 nm, long-pass transmission filter. PI signal was measured in linear mode and extended analysis of DNA content was performed using the ModFit LT program (Verity Software House, Inc., Topsham, Me.). Data are presented as the percentage of cells in G1-G0, S and G2-M.

[2] = tested on: FasR (CD95) of SW480 cells; assay: FasR (CD95) expression by flow cytometry, SW480; assay type: cell-based, human
Procedure: as §1

[3] = tested on: caspase-3; assay: Caspase-3 activity, colorimetric, colorectal cancer cells; assay type: cell-based, human
Procedure: (§2) Caspase-3 and caspase-8 activities were determined using a calorimetric assay kit (R&D Systems, Inc., Minneapolis, Minn.). Assays were conducted according to the instructions of the manufacturer.

[4] = tested on: caspase-8; assay: Caspase-8 activity, colorimetric, colorectal cancer cells; assay type: cell-based, human
Procedure: as §2

[5] = biological target: T1, topoisomerase I-DNA complexes (Homo sapiens, UniProt P11387); assay: Topoisomerase I-DNA complexes in LS513 cells; assay type: cell-based; conditions: factor 25%, 50 μM irinotecan
T1 construct: endogenous in cells; host or cells: LS513
T1 sequence (P11387 1-765): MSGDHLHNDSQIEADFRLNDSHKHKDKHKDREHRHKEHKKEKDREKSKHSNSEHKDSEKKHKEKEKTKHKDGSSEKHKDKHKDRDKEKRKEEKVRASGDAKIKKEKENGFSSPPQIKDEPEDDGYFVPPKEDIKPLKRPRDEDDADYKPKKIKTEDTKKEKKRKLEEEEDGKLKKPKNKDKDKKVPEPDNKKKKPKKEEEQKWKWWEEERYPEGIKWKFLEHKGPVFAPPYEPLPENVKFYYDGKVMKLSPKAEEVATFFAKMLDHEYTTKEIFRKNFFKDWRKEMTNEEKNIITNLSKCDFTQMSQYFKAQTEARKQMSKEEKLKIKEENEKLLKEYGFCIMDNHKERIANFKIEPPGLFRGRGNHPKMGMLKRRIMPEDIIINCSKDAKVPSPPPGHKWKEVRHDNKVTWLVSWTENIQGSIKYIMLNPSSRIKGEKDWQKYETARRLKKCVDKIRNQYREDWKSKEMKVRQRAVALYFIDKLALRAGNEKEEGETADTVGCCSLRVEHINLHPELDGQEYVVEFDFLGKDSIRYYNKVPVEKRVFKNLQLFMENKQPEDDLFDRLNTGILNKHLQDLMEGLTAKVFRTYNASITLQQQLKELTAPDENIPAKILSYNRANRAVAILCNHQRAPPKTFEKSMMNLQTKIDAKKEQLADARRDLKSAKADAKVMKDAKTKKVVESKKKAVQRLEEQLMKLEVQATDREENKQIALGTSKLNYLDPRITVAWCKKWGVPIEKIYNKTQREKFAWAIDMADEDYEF
Procedure: Three different concentrations of DNA (recovered from the DNA peak fractions of each CsCI gradient) were spotted onto the membrane.
The blot was placed on a phosphorimager and signal strengths from the 2 μg slots were quantified. Based upon comparison to a known standard of purified topoisomerase I on the same blot, the signals are expressed as ng or topoisomerase I per ml of DNA=no additions (i.e., untreated). The data are quantified in Table 22 and FIG. 35.

[6] = tested on: LS513 cells; assay: Proliferation assay with median effect analysis, LS513; assay type: cell-based; conditions: Homo sapiens, LS-513, topotecan 1 μg/ml, supernatant 25% v/v, antibodies 10 μg/ml, read-out: Fractional Inhibition
Procedure: (§3) MTS was added for the final 5 hours of culture as recommended by the manufacturer (CelTiter, 96 AQueous Non-Radioactive Cell Proliferation Assay, Promega, Madison, Wis.), and the absorbence was read in a DigiScan reader (ASYS Hitech, Austria) at A492 nm. Samples were evaluated in triplicate. Tumor cells cultured in maintenance media with no addition and the maintenance media alone were used as controls. Fractional inhibition was determined by the following formula: [formula]
According to this method, “synergy” is indicated by a Cl of less than 1, “addition” by a Cl equal to 1, and “antagonism” by a Cl greater than 1. A Cl of less than 0.3 is considered to represent “strong synergism”, and a Cl greater than 3.3 is considered to represent “strong antagonism”.

[7] = tested on: SKBR3 cells; assay: Tumor proliferation assay (MTS), SKBR3; assay type: cell-based, human; conditions: tamoxifen 10 μg/ml; for inhibition at 10 µg/mL: Homo sapiens, SKBR3, Factor C 5% v/v, read-out: Fractional Inhibition
Procedure: as §3, with “(CeiTiter” for “(CelTiter,”, “AQueous,” for “AQueous”, “Assay;” for “Assay,”, “formula set forth above.” for “following formula: [formula]”
The combined effects of the drugs and supernatants were analyzed by the median effect method of Chou and Talalay using CalcuSyn software (see above). […] According to this method, “synergy” is indicated by a Cl of less than 1, “addition” by a Cl equal to 1, and “antagonism” by a Cl greater than 1. A Cl of less than 0.3 is considered to represent “strong synergism”, and a Cl greater than 3.3 is considered to represent “strong antagonism”.

[8] = tested on: Fas (CD95) of SKBR3 cells; assay: Fas (CD95) expression by flow cytometry, SKBR3; assay type: cell-based, human; conditions: tamoxifen 10 μg/ml
Procedure: as §1, with “assess Fas” for “assess FasR”, “cycle. Cells were reacted sequentially with mAb to Fas (CD95) and then with a fluorescenated goat anti-mouse antibody, according to the recommendations of the manufacturer. Percent fluorescent cells and fluorescence intensity was determined using an Epics Elite cytofluorograph (Coulter Corp.). All samples were compared to their isotype-matched controls.” for “cycle.”, “cytometer” for “cytometer (Coulter Corporation)”, “using” for “using the”, “LT program, as described above.” for “LT program (Verity Software House, Inc., Topsham, Me.).”, “G1-G0, S,” for “G1-G0, S”

[9] = tested on: caspase-3; assay: Caspase-3 activity, SKBR3; assay type: cell-based, human; conditions: Factor C 5% v/v, tamoxifen 10 μg/ml
Procedure: (§4) Caspase-3 and caspase-8 activities were determined using a calorimetric assay kit (R&D Systems, Inc., Minneapolis, Minn.). Assays were conducted according to the instructions of the manufacturer. Protein kinase C, Prote3in kinase c alpha and delta levels were determined by immunoprecipitation and Western blotting, as previously described. Hofmeister, et al., “Clustered CD20 induced apoptosis: src-family kinase, the proximal regulator of tyrosine phosphorylation, calcium influx, and caspase 3-dependent apoptosis”, Blood Cells Mol Dis, 26:133-43, 2000.

[10] = tested on: caspase-8; assay: Caspase-8 activity, SKBR3; assay type: cell-based, human; conditions: Factor C 5% v/v, tamoxifen 10 μg/ml
Procedure: as §4

[11] = biological target: soluble Fas ligand (sFasL) in supernatants of anti-CD3/IL-2 activated-expanded T cells (human) (UniProt P48023); assay: cell-based or functional assay
Sequence of soluble Fas ligand (sFasL) in supernatants of anti-CD3/IL-2 activated-expanded T cells (human) (P48023 130-281 limits assumed): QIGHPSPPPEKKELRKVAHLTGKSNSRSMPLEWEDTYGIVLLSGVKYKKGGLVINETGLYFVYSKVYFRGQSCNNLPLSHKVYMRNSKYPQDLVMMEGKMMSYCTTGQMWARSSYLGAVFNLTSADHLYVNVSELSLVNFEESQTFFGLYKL

[12] = tested on: SW480 cells; assay: Proliferation assay (MTS), SW480; assay type: cell-based, human; conditions: Table 13; supernatant 25% v/v; IFN-γ, TNF-α 1,000 U/ml; antibodies 10 μg/ml
Procedure: as §3, with “Unstimulated and stimulated supernatants, as well as the expansion media, were added at a range of volumes to SW480, LS174T, or Jurkat cells or cultured in their maintenance media in 24-well plates for 96 hours. MTS” for “MTS”

## CCc1c2c(nc3ccc(OC(=O)N4CCC(N5CCCCC5)CC4)cc13)-c1cc3c(c(=O)n1C2)COC(=O)[C@]3(O)CC [CPT, Irinotecan HCl]
[1]
  CD95: 13
[2]
  CD95: 13
[3]; LS513 Cells
  Caspase-3: 0.12
[3]; SW480 Cells
  Caspase-3: 0.12
[4]; LS513 Cells
  Caspase-8: 0.11
[4]; SW480 Cells
  Caspase-8: 0.11
[5]; Time 1 hrs
  topoisomerase I-DNA complexes signal: 3.93 ng or topoisomerase I per ml of DNA
[5]; Time 12 hrs
  topoisomerase I-DNA complexes signal: 4.83 ng or topoisomerase I per ml of DNA
[5]; Time 48 hrs
  topoisomerase I-DNA complexes signal: 5.37 ng or topoisomerase I per ml of DNA

## CC[C@@]1(O)C(=O)OCc2c1cc1n(c2=O)Cc2cc3c(CN(C)C)c(O)ccc3nc2-1 [TPT, Topotecan]
[6]
  inhibition at 1 µg/mL: 51%

## CC/C(=C(\c1ccccc1)c1ccc(OCCN(C)C)cc1)c1ccccc1 [Tamoxifen]
[7]; SK-BR-3, Table 28, blocking antibody 50 μg/ml
  inhibition at 10 µg/mL: 32%
[7]; SK-BR-3, Table 29
  inhibition at 10 µg/mL: 44.5%
[7]; Table 27, SKBR3 cells
  F1: 0.28
[8]; Table 27, SKBR3 cells
  CD95: 11
[8]; Table 29, SKBR3, CD95 mean cell fluorescence, Factor C 5% v/v
  CD 95 Cells: 1.8
[9]
  Caspase-3: 0.12
[10]
  Caspase-8: 0.01

B1: anti-FasL antibody NOK1 (antibody, from another filing, V domains shown)
VH: VQLQESGPELVKPGASVKISCKASGYAFSSSWMNWVKQRPGKGLEWIGRIYPGDGDTNDNGKFKGKATLTADKSSSTAYMQLSSLTSEDSAVYFCARSYYYDGSPWFTYWGQGTTVTVSS
VL: DIQMTQSPSSLSASLGDRVTISCRASQDISNYLNWYQQKPDGTVKLLIYYTSRLHSGVPSRFSGSGSGTDYSLTISNLEPEDIATYFCQQYSEFPWTFGGGTKLEIKR
[11]
  Fractional Inhibition - Run 1, Supernatant + anti-FasL (supernatant alone 0.36): 0.15
  Fractional Inhibition - Run 2, Supernatant + anti-FasL (supernatant alone 0.41): 0.21
  Fractional Inhibition, Sup + TPT + anti-FasL on LS513 cells (Sup + TPT alone 0.84): 0.69

B2: IFN: human recombinant IFN-γ (protein, UniProt P01579 24-161, looked up)
Interferon gamma: QDPYVKEAENLKKYFNAGHSDVADNGTLFLGILKNWKEESDRKIMQSQIVSFYFKLFKNFKDDQSIQKSVETIKEDMNVKFFNSNKKKRDDFEKLTNYSVTDLNVQRKAIHELIQVMAELSPAAKTGKRKRSQMLFRG
[12]
  Fractional Inhibition - Run 1: 0.01
  Fractional Inhibition - Run 2: 0.011
